# Tested on: NT2/D1-R1 control and DNMT3B knockdown cells
# Assay: Genome-wide expression analysis with PAM clusters, control and DNMT3B knockdown cells (Tables 8-14)
# Settings: sh-3B + aza, NT2/D1-R1 DNMT3B knockdown, decitabine 10 nM 3 days
smiles,measurement,setting,value
Nc1ncn([C@H]2C[C@H](O)[C@@H](CO)O2)c(=O)n1 [aza],"ACSS2 (NM_0010765) gene expression, Mean",,406.693
same,"ADCK1 (NM_020421) gene expression, Mean",,305.179
same,"ADCY1 (NM_021116) gene expression, Mean",,138.949
same,"AGAP1 (NM_014914) gene expression, Mean",,225.72
same,"AK056312 gene expression, Mean",,471.555
same,"ANKRD9 (NM_152326) gene expression, Mean",,896.077
same,"APEH (NM_001640) gene expression, Mean",,1236.16
same,"APP (NM_201414) gene expression, Mean",,393.758
same,"C1orf115 (NM_024709) gene expression, Mean",,380.885
same,"C2orf34 (NM_024766) gene expression, Mean",,286.591
same,"C7orf47 (NM_145030) gene expression, Mean",,749.147
same,"C16orf35 (NM_0010394) gene expression, Mean",,464.104
same,"CA4 (NM_000717) gene expression, Mean",,1313.05
same,"CACNA2D2 (NM_006030) gene expression, Mean",,398.095
same,"CD24 (NM_013230) gene expression, Mean",,4095.34
same,"CD248 (NM_020404) gene expression, Mean",,166.587
same,"CDC42EP5 (NM_145057) gene expression, Mean",,232.63
same,"CDH3 (NM_001793) gene expression, Mean",,1031.14
same,"CEBPB (NM_005194) gene expression, Mean",,886.982
same,"CHST13 (NM_152889) gene expression, Mean",,184.993
same,"CLASP1 (NM_015282) gene expression, Mean",,448.757
same,"CLIP2 (NM_032421) gene expression, Mean",,216.273
same,"COMMD1 (NM_152516) gene expression, Mean",,327.95
same,"COMMD7 (NM_0010993) gene expression, Mean",,1236.98
same,"CRMP1 (NM_0010148) gene expression, Mean",,628.721
same,"CTNNBIP1 (NM_020248) gene expression, Mean",,181.632
same,"CXCL16 (NM_022059) gene expression, Mean",,276.818
same,"CYP2F1 (NM_000774) gene expression, Mean",,134.435
same,"CYP2S1 (NM_030622) gene expression, Mean",,1003.81
same,"DBC1 (NM_014618) gene expression, Mean",,313.757
same,"DDIT4 (NM_019058) gene expression, Mean",,558.55
same,"DGKQ (NM_001347) gene expression, Mean",,236.075
same,"DLL3 (NM_016941) gene expression, Mean",,150.963
same,"DPYSL3 (NM_001387) gene expression, Mean",,841.778
same,"DYM (NM_017653) gene expression, Mean",,332.811
same,"DYSF (NM_003494) gene expression, Mean",,345.371
same,"EPHA1 (NM_005232) gene expression, Mean",,886.512
same,"EVI5L (NM_145245) gene expression, Mean",,248.688
same,"EVL (NM_016337) gene expression, Mean",,840.767
same,"EXTL3 (NM_001440) gene expression, Mean",,869.111
same,"F11R (NM_016946) gene expression, Mean",,218.843
same,"FAF1 (NM_007051) gene expression, Mean",,266.415
same,"FAM125A (NM_138401) gene expression, Mean",,558.795
same,"FAM127A (NM_0010781) gene expression, Mean",,1016.07
same,"FCGBP (NM_003890) gene expression, Mean",,279.685
same,"FDFT1 (NM_004462) gene expression, Mean",,705.216
same,"FIGNL2 (NM_0010136) gene expression, Mean",,289.159
same,"FLNB (NM_001457) gene expression, Mean",,960.275
same,"FOXN3 (NM_005197) gene expression, Mean",,518.292
same,"GAL (NM_015973) gene expression, Mean",,1768.85
same,"GAS7 (NM_201433) gene expression, Mean",,308.927
same,"GLG1 (NM_012201) gene expression, Mean",,913.909
same,"GRAMD1A (NM_020895) gene expression, Mean",,607.142
same,"GTF3C1 (NM_001520) gene expression, Mean",,626.338
same,"HCFC1R1 (NM_0010020) gene expression, Mean",,798.561
same,"HESX1 (NM_003865) gene expression, Mean",,379.045
same,"HINT2 (NM_032593) gene expression, Mean",,706.883
same,"HIST3H2A (NM_033445) gene expression, Mean",,282.379
same,"HIST4H4 (NM_003541) gene expression, Mean",,314.561
same,"HK1 (NM_033500) gene expression, Mean",,4205.36
same,"IDH1 (NM_005896) gene expression, Mean",,1445.11
same,"IL21R (NM_181078) gene expression, Mean",,161.219
same,"JPH3 (NM_020655) gene expression, Mean",,214.843
same,"KIF1A (NM_004321) gene expression, Mean",,150.02
same,"KIF1B (NM_015074) gene expression, Mean",,393.388
same,"LDB2 (NM_001290) gene expression, Mean",,259.706
same,"LDOC1 (NM_012317) gene expression, Mean",,881.126
same,"LHFPL4 (NM_198560) gene expression, Mean",,515.175
same,"LONP1 (NM_004793) gene expression, Mean",,1192.71
same,"LPCAT3 (NM_005768) gene expression, Mean",,456.787
same,"LRBA (NM_006726) gene expression, Mean",,267.501
same,"LRRC33 (NM_198565) gene expression, Mean",,257.521
same,"MAPK3 (NM_0010400) gene expression, Mean",,447.115
same,"MAPKAP1 (NM_0010066) gene expression, Mean",,274.663
same,"MED30 (NM_080651) gene expression, Mean",,707.11
same,"MID1IP1 (NM_021242) gene expression, Mean",,1496.95
same,"MKRN1 (NM_013446) gene expression, Mean",,3678.37
same,"MSRB2 (NM_012228) gene expression, Mean",,698.39
same,"MYO5C (NM_018728) gene expression, Mean",,203.184
same,"NANOG (NM_024865) gene expression, Mean",,1405.64
same,"NCOR2 (NM_006312) gene expression, Mean",,1205.94
same,"NDUFS4 (NM_002495) gene expression, Mean",,375.498
same,"NFE2L3 (NM_004289) gene expression, Mean",,395.959
same,"NGFRAP1 (NM_206917) gene expression, Mean",,1522.67
same,"NKX3-2 (NM_001189) gene expression, Mean",,358.543
same,"NM_014745 gene expression, Mean",,246.953
same,"NPAS1 (NM_002517) gene expression, Mean",,227.998
same,"NPTX2 (NM_002523) gene expression, Mean",,279.223
same,"ODZ3 (NM_0010804) gene expression, Mean",,220.124
same,"P4HB (NM_000918) gene expression, Mean",,2039.07
same,"PACSIN1 (NM_020804) gene expression, Mean",,268.257
same,"PCDH19 (NM_020766) gene expression, Mean",,187.553
same,"PCK2 (NM_0010180) gene expression, Mean",,126.174
same,"PDZD4 (NM_032512) gene expression, Mean",,283.495
same,"PEMT (NM_148172) gene expression, Mean",,1036.99
same,"PEX14 (NM_004565) gene expression, Mean",,423.992
same,"PGM1 (NM_002633) gene expression, Mean",,3256.12
same,"PHC1 (NM_004426) gene expression, Mean",,2226.1
same,"PIM2 (NM_006875) gene expression, Mean",,2475.84
same,"PITPNC1 (NM_181671) gene expression, Mean",,287.618
same,"PNKP (NM_007254) gene expression, Mean",,570.846
same,"PPAP2A (NM_176895) gene expression, Mean",,646.273
same,"PPP1R1B (NM_181505) gene expression, Mean",,588.401
same,"PQLC3 (NM_152391) gene expression, Mean",,307.634
same,"PRSS8 (NM_002773) gene expression, Mean",,925.924
same,"PSAT1 (NM_021154) gene expression, Mean",,2370.22
same,"PTOV1 (NM_017432) gene expression, Mean",,1244.12
same,"PTPLA (NM_014241) gene expression, Mean",,295.309
same,"RAB3IP (NM_175624) gene expression, Mean",,976.727
same,"RALY (NM_007367) gene expression, Mean",,1409.6
same,"RASIP1 (NM_017805) gene expression, Mean",,236.587
same,"RASL11B (NM_023940) gene expression, Mean",,570.022
same,"RCN2 (NM_002902) gene expression, Mean",,957.657
same,"REEP6 (NM_138393) gene expression, Mean",,581.805
same,"RNF130 (NM_018434) gene expression, Mean",,258.36
same,"ROD1 (NM_005156) gene expression, Mean",,1065.57
same,"RPS6KA2 (NM_0010069) gene expression, Mean",,170.158
same,"SAT1 (NM_002970) gene expression, Mean",,2411.02
same,"SCARB1 (NM_005505) gene expression, Mean",,698.95
same,"SCNN1A (NM_001038) gene expression, Mean",,2384.6
same,"SEMA4B (NM_198925) gene expression, Mean",,455.134
same,"SEMA4D (NM_006378) gene expression, Mean",,404.578
same,"SEMA6B (NM_032108) gene expression, Mean",,327.203
same,"SH2B3 (NM_005475) gene expression, Mean",,459.878
same,"SLC3A2 (NM_0010132) gene expression, Mean",,701.201
same,"SLC8A2 (NM_015063) gene expression, Mean",,221.546
same,"SLC16A10 (NM_018593) gene expression, Mean",,222.7
same,"SLC22A23 (NM_021945) gene expression, Mean",,371.628
same,"SND1 (NM_014390) gene expression, Mean",,806.495
same,"SOX2 (NM_003106) gene expression, Mean",,507.636
same,"SPRY1 (NM_005841) gene expression, Mean",,278.849
same,"SPSB2 (NM_032641) gene expression, Mean",,738.293
same,"SRPX (NM_006307) gene expression, Mean",,221.585
same,"SURF6 (NM_006753) gene expression, Mean",,1956.16
same,"TBCD (NM_005993) gene expression, Mean",,565.581
same,"TCEA2 (NM_198723) gene expression, Mean",,471.659
same,"TCF7L1 (NM_031283) gene expression, Mean",,182.485
same,"TIMP4 (NM_003256) gene expression, Mean",,657.953
same,"TMC6 (NM_007267) gene expression, Mean",,426.897
same,"TMEM145 (NM_173633) gene expression, Mean",,204.077
same,"TPST2 (NM_0010085) gene expression, Mean",,683.535
same,"TRAPPC9 (NM_031466) gene expression, Mean",,145.068
same,"TSPAN9 (NM_006675) gene expression, Mean",,1493.67
same,"TUBB4 (NM_006087) gene expression, Mean",,455.752
same,"UBE2E2 (NM_152653) gene expression, Mean",,521.892
same,"UNC84B (NM_015374) gene expression, Mean",,307.131
same,"VCX2 (NM_016378) gene expression, Mean",,178.538
same,"VCX3A (NM_016379) gene expression, Mean",,405.641
same,"VCX3B (NM_0010018) gene expression, Mean",,466.812
same,"VSNL1 (NM_003385) gene expression, Mean",,462.603
same,"WDR8 (NM_017818) gene expression, Mean",,819.149
same,"XBP1 (NM_0010795) gene expression, Mean",,860.839
same,"XM_373896 gene expression, Mean",,451.855
same,"XM_926633 gene expression, Mean",,6671.37
same,"XM_932919 gene expression, Mean",,278.004
same,"XM_933796 gene expression, Mean",,430.873
same,"XM_943677 gene expression, Mean",,268.065
same,"ZBTB46 (NM_025224) gene expression, Mean",,246.643
same,"ZSWIM4 (NM_023072) gene expression, Mean",,558.806
same,"HIST1H2BK (NM_080593) gene expression, Mean",first HIST1H2BK entry (r906),1161.66
same,"TRPC4AP (NM_015638) gene expression, Mean",first TRPC4AP entry (r880),1093.15
same,"HIST1H2BK (NM_080593) gene expression, Mean",second HIST1H2BK entry (r952),355.319
same,"TRPC4AP (NM_015638) gene expression, Mean",second TRPC4AP entry (r892),1137.74

# Source: patent US9476099B2 (TRUSTEES OF DARTMOUTH COLLEGE, priority 2012, dated 2016)
